The values that follow come from PubChem BioAssay (NCI).

Where “and” joins values, the source holds several entries; their conditions need not be identical. Equal entries are not always repeated.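 Assay format: 96-well plates, 48-hour exposure. The concentration for 50% growth inhibition is given as GI50. The concentration for full growth arrest is given as TGI.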

Some test systems named below: BT-549 breast; HCC-2998 colon; HOP-62 NSCLC; HOP-92 NSCLC; MALME-3M melanoma; MCF7 breast; MOLT-4 leukemia; OVCAR-3 ovarian; PC-3 prostate; UACC-257 melanoma.
Holding throughout (assay): growth of human tumour cells (NCI), 48 h

Take `O=C(c1ccccc1)c1nc2ccc(C(F)(F)F)cc2[n+]([O-])c1C(F)(F)F`: the GI50 with BT-549 breast was 31.5 µM; in the test with HCC-2998 colon, 30.1 µM; in the test on HOP-62 NSCLC it was 59.6 µM; with HOP-92 NSCLC, 15.1 µM; in the test with MALME-3M melanoma, 47.6 µM; with MCF7 breast, 36 µM. For the same molecule, the GI50 in the test on MOLT-4 leukemia was 23 µM; in the test on OVCAR-3 ovarian it was 24.2 µM; with PC-3 prostate, 24.5 µM; in the test on UACC-257 melanoma it was 22.7 µM. Moreover, the TGI was more than 100 µM in the test with BT-549 breast; more than 100 µM in the test on HCC-2998 colon; more than 100 µM in the test with HOP-62 NSCLC; 78.5 µM with HOP-92 NSCLC; more than 100 µM with MALME-3M melanoma; more than 100 µM in the test with MCF7 breast. The TGI is 73.7 µM with MOLT-4 leukemia, more than 100 µM in the test on OVCAR-3 ovarian, more than 100 µM in the test on PC-3 prostate and more than 100 µM with UACC-257 melanoma.

On to `CCCCCCCCCCCCOC1C(CNC(=O)C2OC3OC(C)(C)OC3C2NC(=O)CN2CCCCCC2)OC2OC(C)(C)OC21` (stereo not drawn), for which the GI50 in the test on BT-549 breast was 9.06 µM; with HCC-2998 colon it was 6 µM; in the test with HOP-62 NSCLC it was 6.48 µM; in the test with HOP-92 NSCLC, 9.4 µM; in the test on MALME-3M melanoma it was 1.99 µM; with MCF7 breast, 3.7 µM. Further, the GI50 was 3.12 µM with MOLT-4 leukemia, 8.39 µM with OVCAR-3 ovarian, 4.57 µM in the test with PC-3 prostate and 3.14 µM in the test with UACC-257 melanoma. Also, the TGI in the test on BT-549 breast was found to be 22.1 µM; with HCC-2998 colon it was 19.3 µM; in the test on HOP-62 NSCLC it was 18.1 µM; in the test on HOP-92 NSCLC it was 22.8 µM; in the test on MALME-3M melanoma it was 4.1 µM; in the test on MCF7 breast it was 14.3 µM. Besides, the TGI in the test on MOLT-4 leukemia worked out at 9.85 µM; with OVCAR-3 ovarian it was 23.8 µM; with PC-3 prostate, 15.8 µM; with UACC-257 melanoma, 8.75 µM.

Turning to `COc1ccc(Cn2cc3c(c2-c2cc(OC)c(OC)c(OC)c2)CCc2cnoc2-3)cc1[N+](=O)[O-]`, the GI50 was 7.9 µM in the test with BT-549 breast; 1.93 µM with HCC-2998 colon; 2.85 µM with HOP-62 NSCLC; 1.07 µM in the test on HOP-92 NSCLC; 0.387 µM in the test on MALME-3M melanoma; 0.454 µM in the test with MCF7 breast. The GI50 was 1.4 µM in the test on MOLT-4 leukemia, 0.441 µM in the test on OVCAR-3 ovarian, 1.39 µM in the test with PC-3 prostate and 4.03 µM in the test on UACC-257 melanoma. Besides, the TGI in the test on BT-549 breast is more than 100 µM; in the test on HCC-2998 colon it was more than 31.6 µM; in the test on HOP-62 NSCLC it was more than 100 µM; in the test on HOP-92 NSCLC, 60.6 µM; in the test on MALME-3M melanoma it was more than 100 µM; in the test with MCF7 breast, more than 100 µM. For the same molecule, the TGI is more than 100 µM in the test on MOLT-4 leukemia, 3.09 µM in the test on OVCAR-3 ovarian, more than 100 µM in the test on PC-3 prostate and more than 100 µM in the test with UACC-257 melanoma.

For the molecule `COC1=Nc2ccccc2S(=O)(=O)C=C1`, the GI50 was 0.678 µM in the test with BT-549 breast; 0.742 µM with HOP-92 NSCLC; 0.489 µM and 0.44 µM in the test on MOLT-4 leukemia; 0.671 µM with UACC-257 melanoma. The TGI was 19.1 µM in the test with BT-549 breast; 36.9 µM with HCC-2998 colon; more than 100 µM with HOP-62 NSCLC; 15.2 µM with HOP-92 NSCLC; 6.84 µM in the test on MALME-3M melanoma; 12.3 µM with MCF7 breast. The TGI with MOLT-4 leukemia was 2.47 µM; with OVCAR-3 ovarian, 6.79 µM; with PC-3 prostate, 28.7 µM; in the test with UACC-257 melanoma it was 20.5 µM.

Turning to `C/C(Cc1ccc(Cl)cc1)=C(/c1ccc(Cl)cc1)c1ccc(OCCN(C)C)cc1`, the GI50 is 4.95 µM in the test on BT-549 breast; 2.03 µM in the test on HCC-2998 colon; 6.07 µM in the test with HOP-62 NSCLC; 1.62 µM with HOP-92 NSCLC; 3.68 µM with MALME-3M melanoma; 1.7 µM in the test with MCF7 breast. For the same molecule, the GI50 in the test with MOLT-4 leukemia was 4.01 µM; with OVCAR-3 ovarian, 4.53 µM; in the test on PC-3 prostate, 4.34 µM; with UACC-257 melanoma it was 4.24 µM. Also, the TGI is 10 µM in the test on BT-549 breast; 6.7 µM in the test with HCC-2998 colon; 11.8 µM with HOP-62 NSCLC; 6.48 µM in the test with HOP-92 NSCLC; 8.63 µM in the test with MALME-3M melanoma; 6.31 µM in the test with MCF7 breast. Further, the TGI was 10 µM in the test on MOLT-4 leukemia, 9.2 µM in the test on OVCAR-3 ovarian, 9.21 µM with PC-3 prostate and 9.38 µM in the test on UACC-257 melanoma.

Regarding `CCCCCC/C=C\CCCCCCCCCC1=CC(=O)C=C(OC)C1=O`, the TGI in the test on BT-549 breast was found to be 13.1 µM; in the test with HCC-2998 colon it was 27 µM; with HOP-62 NSCLC it was 14.8 µM; in the test on HOP-92 NSCLC, 8.05 µM; in the test with MALME-3M melanoma it was 29.4 µM; in the test on MCF7 breast, 15.3 µM. In addition, the TGI was more than 100 µM in the test on MOLT-4 leukemia, 17.6 µM in the test with OVCAR-3 ovarian, 11 µM with PC-3 prostate and 9.11 µM with UACC-257 melanoma.

Turning to `O=C1CCc2c(sc3[nH]c(=S)n(Cc4ccccc4)c(=O)c23)C1`, the GI50 in the test with BT-549 breast was 1.82 µM; in the test on HCC-2998 colon it was 2.88 µM; with HOP-62 NSCLC, 3.84 µM; in the test with HOP-92 NSCLC it was 1.92 µM; in the test with MALME-3M melanoma, 4.53 µM; with MCF7 breast, 3.26 µM. For the same molecule, the GI50 was 4.39 µM with MOLT-4 leukemia, 3.72 µM in the test on OVCAR-3 ovarian, 0.616 µM with PC-3 prostate and 2.36 µM with UACC-257 melanoma. For the same molecule, the TGI in the test on BT-549 breast is 7.35 µM; with HCC-2998 colon it was 14 µM; in the test on HOP-62 NSCLC it was more than 100 µM; in the test with HOP-92 NSCLC, 5.33 µM; with MALME-3M melanoma, more than 100 µM; in the test with MCF7 breast, 12.4 µM. In addition, the TGI is more than 100 µM in the test on MOLT-4 leukemia, more than 100 µM in the test with OVCAR-3 ovarian, more than 100 µM in the test with PC-3 prostate and 7.06 µM in the test on UACC-257 melanoma.

On to `Nc1c(C(=O)Nc2ccccc2F)sc2nc3c(cc12)C(=O)CCC3`, for which the TGI in the test on BT-549 breast is more than 52.5 µM; in the test with HCC-2998 colon, more than 100 µM; in the test on HOP-62 NSCLC it was more than 100 µM; in the test with HOP-92 NSCLC, more than 100 µM; in the test with MALME-3M melanoma, more than 100 µM; in the test with MCF7 breast it was more than 100 µM. The TGI was more than 100 µM with MOLT-4 leukemia, 3.9 µM in the test on OVCAR-3 ovarian, more than 100 µM in the test on PC-3 prostate and more than 100 µM in the test with UACC-257 melanoma. The GI50 is 2.2 µM with HCC-2998 colon; 4.12 µM with HOP-62 NSCLC; 0.121 µM with HOP-92 NSCLC; 1.44 µM in the test on MALME-3M melanoma; 0.499 µM with MCF7 breast; more than 100 µM in the test on MOLT-4 leukemia. For the same molecule, the GI50 is 0.576 µM in the test with OVCAR-3 ovarian, 0.959 µM in the test on PC-3 prostate and more than 100 µM in the test on UACC-257 melanoma.
